Measured values: publication PMC8625619, “Carbonic Anhydrase Inhibition with Sulfonamides Incorporating Pyrazole- and Pyridazinecarboxamide Moieties Provides Examples of Isoform-Selective Inhibitors” (Molecules, 2021)

Assays:
[1] = target: hCA I (Homo sapiens, UniProt P00915); assay: stopped flow CO2 hydrase assay, hCA I
Description: (§1) An Applied Photophysics stopped-flow instrument was used for assaying the CA-catalyzed CO2 hydration activity [50]. […] However, the background activity from the uncatalyzed reaction was always subtracted when IC50 values were obtained by using the data analysis software for the stopped-flow instrument. […] The uncatalyzed rates were determined in the same manner and subtracted from the total observed rates. Stock solutions of the inhibitor (0.1 mM) were prepared in distilled–deionized water, and dilutions up to 0.01 nM were performed thereafter with the assay buffer. Inhibitor and enzyme solutions were preincubated together for 15 min at room temperature prior to the assay, to allow for the formation of the E–I complex. The inhibition constants were obtained by nonlinear least-squares methods using PRISM 3 and the Cheng–Prusoff equation as reported earlier and represented the mean from at least three different determinations. All CA isoforms were recombinant proteins obtained in-house, as reported earlier [2, 51, 52].

[2] = target: hCA II (Homo sapiens, UniProt P00918); assay: stopped flow CO2 hydrase assay, hCA II
Description: as §1

[3] = target: hCA IX (Homo sapiens, UniProt Q16790); assay: stopped flow CO2 hydrase assay, hCA IX
Description: as §1

[4] = target: hCA XII (Homo sapiens, UniProt O43570); assay: stopped flow CO2 hydrase assay, hCA XII
hCA XII, sequence (O43570 25-354): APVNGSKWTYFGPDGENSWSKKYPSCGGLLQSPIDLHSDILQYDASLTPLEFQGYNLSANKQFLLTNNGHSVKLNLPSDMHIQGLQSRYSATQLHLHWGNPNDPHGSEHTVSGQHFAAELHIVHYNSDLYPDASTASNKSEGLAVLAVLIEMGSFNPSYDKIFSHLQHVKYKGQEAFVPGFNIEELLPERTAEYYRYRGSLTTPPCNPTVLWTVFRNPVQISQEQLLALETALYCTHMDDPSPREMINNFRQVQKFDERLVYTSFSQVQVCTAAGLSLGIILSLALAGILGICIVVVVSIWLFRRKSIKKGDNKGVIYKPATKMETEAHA
Description: as §1

hCA I, sequence (P00915 whole entry): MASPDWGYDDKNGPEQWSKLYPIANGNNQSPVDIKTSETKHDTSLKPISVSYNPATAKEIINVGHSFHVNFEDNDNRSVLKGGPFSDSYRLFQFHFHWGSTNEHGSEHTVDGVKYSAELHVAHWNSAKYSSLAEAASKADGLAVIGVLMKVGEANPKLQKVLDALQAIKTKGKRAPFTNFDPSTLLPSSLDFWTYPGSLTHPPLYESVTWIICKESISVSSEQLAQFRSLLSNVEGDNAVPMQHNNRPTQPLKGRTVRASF

Compound | melting point [°C] | Ki [1] [nM] | Ki [2] [nM] | Ki [3] [nM] | selectivity index on hCA IX compared to hCA I ([3]; hCA IX compared to hCA I) | selectivity index on hCA IX compared to hCA II ([3]; hCA IX compared to hCA II) | Ki [4] [nM] | selectivity index (SI) for hCA II towards hCA I ([2]; hCA II compared to hCA I) | selectivity index (SI) for hCA II compared to hCA IX ([2]; hCA II compared to hCA IX)
Cc1ccc(O)c(-c2cc(C(=O)Nc3ccc(S(N)(=O)=O)cc3)[nH]n2)c1 [4c, N-[4-(Aminosulfonyl)phenyl]-3-(2-hydroxy-5-methylphenyl)-1H-pyrazole-5-carboxamide] | 297 to 299 | 221 | 16.1 | 8.5 | 26 | two times | 250 |  | 
COc1cc2c(cc1OC)-c1c(c(C(=O)Nc3ccc(S(N)(=O)=O)cc3)nn1C)C2 [compound 15, N-[4-(Aminosulfonyl)phenyl]-6,7-dimethoxy-1-methyl-1,4-dihydroindeno[1,2-c]pyrazole-3-carboxamide] |  | 726 |  | 6.1 |  |  |  |  | 
Cc1ccc(-c2cc(C(=O)Nc3ccc(S(N)(=O)=O)cc3)[nH]n2)c(O)c1 [4b, N-[4-(Aminosulfonyl)phenyl]-3-(2-hydroxy-4-methylphenyl)-1H-pyrazole-5-carboxamide] |  | 93.3 | 309 | 78.9 |  |  | 372 |  | 
NS(=O)(=O)c1ccc(NC(=O)c2cc(-c3ccccc3O)[nH]n2)cc1 [4a, N-[4-(Aminosulfonyl)phenyl]-3-(2-hydroxyphenyl)-1H-pyrazole-5-carboxamide] |  | 3820 | 867 | 450 |  |  | 271 |  | 
NS(=O)(=O)c1ccc(NC(=O)c2cc(-c3cc(Cl)ccc3O)n[nH]2)cc1 [4f, N-[4-(Aminosulfonyl)phenyl]-3-(5-chloro-2-hydroxyphenyl)-1H-pyrazole-5-carboxamide] | 302 to 304 | 155 | 37.2 | 34.2 |  |  | 90.8 |  | 

The remaining lines, values ahead:

melting point [°C] | Ki [1] [nM] | Ki [2] [nM] | Ki [3] [nM] | selectivity index on hCA IX compared to hCA I ([3]; hCA IX compared to hCA I) | selectivity index on hCA IX compared to hCA II ([3]; hCA IX compared to hCA II) | Ki [4] [nM] | selectivity index (SI) for hCA II towards hCA I ([2]; hCA II compared to hCA I) | selectivity index (SI) for hCA II compared to hCA IX ([2]; hCA II compared to hCA IX) | Compound
 | 2150 | 9.1 | 79.4 |  |  | 77.3 | 236 | 8.7 | NS(=O)(=O)c1ccc(CCNC(=O)c2cc(-c3cc(Cl)ccc3O)n[nH]2)cc1 [5f, N-{2-[4-(Aminosulfonyl)phenyl]ethyl}-3-(5-chloro-2-hydroxyphenyl)-1H-pyrazole-5-carboxamide]
313 to 315 | 481 | 72.5 | 131 |  |  | 94.8 |  |  | NS(=O)(=O)c1ccc(NC(=O)c2nn(-c3ccc(F)cc3)ccc2=O)cc1 [10b, N-[4-(Aminosulfonyl)phenyl]-1-(4-fluorophenyl)-4-oxo-1,4-dihydropyridazine-3-carboxamide]
 | 71.4 | 16.2 | 52.3 |  |  | 191 |  |  | Cc1cc(C)c(O)c(-c2cc(C(=O)NCCc3ccc(S(N)(=O)=O)cc3)[nH]n2)c1 [5e, N-{2-[4-(Aminosulfonyl)phenyl]ethyl}-3-(2-hydroxy-3,5-dimethylphenyl)-1H-pyrazole-5-carboxamide]
256 to 258 | 218 | 25.2 | 63.5 |  |  | 61.3 |  |  | Cc1cc(O)c(-c2cc(C(=O)NCCc3ccc(S(N)(=O)=O)cc3)[nH]n2)cc1C [5d, N-{2-[4-(Aminosulfonyl)phenyl]ethyl}-3-(2-hydroxy-4,5-dimethylphenyl)-1H-pyrazole-5-carboxamide]
310 to 312 | 6.2 | 8 | 165 |  |  | 65.7 |  |  | NS(=O)(=O)c1ccc(NC(=O)c2nn(-c3ccc(Cl)cc3)ccc2=O)cc1 [10d, N-[4-(Aminosulfonyl)phenyl]-1-(4-chlorophenyl)-4-oxo-1,4-dihydropyridazine-3-carboxamide]
 | 88.1 |  |  |  |  |  |  |  | NS(=O)(=O)c1ccc(CCNC(=O)c2cc(-c3ccccc3O)n[nH]2)cc1 [5a, N-{2-[4-(Aminosulfonyl)phenyl]ethyl}-3-(2-hydroxyphenyl)-1H-pyrazole-5-carboxamide]
297 to 299 | 840 | 76.3 | 569 |  |  | 433 |  |  | NS(=O)(=O)c1ccc(NC(=O)c2nn(-c3cccc(Cl)c3)ccc2=O)cc1 [10c, N-[4-(Aminosulfonyl)phenyl]-1-(3-chlorophenyl)-4-oxo-1,4-dihydropyridazine-3-carboxamide]
254 to 255 | 345 | 16.2 | 16.1 |  |  | 330 |  |  | Cc1ccc(-c2cc(C(=O)NCCc3ccc(S(N)(=O)=O)cc3)[nH]n2)c(O)c1 [5b, N-{2-[4-(Aminosulfonyl)phenyl]ethyl}-3-(2-hydroxy-4-methylphenyl)-1H-pyrazole-5-carboxamide]
